Assay results reported in paper PMC12384447, “Effect of a Novel Antidepressant and Anticancer Nuc01 on Depression in Cancer Survivors” (Current Issues in Molecular Biology, 2025).

Molecular target: T1, LSD1 (lysine-specific demethylase 1) (Homo sapiens, UniProt O60341)
T1 construct: gene KDM1A; residues 172–852
Assay: TR-FRET (LANCE) demethylase assay with biotinylated histone H3K4me1 peptide
Format: biochemical

## CN(C)CC(c1ccc(OC(=O)N(C)CCN(C)C2CC2c2ccccc2)cc1)C1(O)CCCCC1 (stereo not shown) [Nuc01]
  IC50: 530 nM
